ChEMBL document CHEMBL4609984, “Design, synthesis and biological evaluation of imidazole and oxazole fragments as HIV-1 integrase-LEDGF/p75 disruptors and inhibitors of microbial pathogens” (Bioorg Med Chem, 2020)
In brackets after ≈: the same amount, converted by molar mass. Activity calls are given as the source filed them. The calls are words filed in the database; no cut-off is given here.

Experiments:
[1] = molecular target: Human immunodeficiency virus type 1 integrase (Human immunodeficiency virus 1) (UniProt Q7ZJM1); assay: Inhibition of HIV-1 integrase assessed as inhibition of interaction of HIV-1 IN with LEDGF/p75 (unknown origin) at 10 uM preincubated with enzyme for 30 mins followed by further incubation with LEDGF/p75 for 1 hr by Alphascreen assay relative to control
Sequence of Human immunodeficiency virus type 1 integrase (Human immunodeficiency virus 1) (Q7ZJM1 as listed by the source): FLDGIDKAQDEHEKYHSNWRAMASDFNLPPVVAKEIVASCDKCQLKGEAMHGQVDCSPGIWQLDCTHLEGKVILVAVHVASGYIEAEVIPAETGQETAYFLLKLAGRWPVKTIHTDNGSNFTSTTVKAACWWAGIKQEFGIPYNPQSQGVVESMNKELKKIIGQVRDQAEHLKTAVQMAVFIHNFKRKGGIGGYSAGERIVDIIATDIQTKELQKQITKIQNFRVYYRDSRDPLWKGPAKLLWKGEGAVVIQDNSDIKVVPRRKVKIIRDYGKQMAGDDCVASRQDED

MT4 = assay: Cytotoxicity against human MT4 cells assessed as reduction in cell viability at 10 uM incubated for 5 days by MTS assay; format: cell-based; details: mt4, 120 h
Staphylococcus aureus = assay: Antibacterial activity against Staphylococcus aureus ATCC 25923 assessed as reduction in bacterial growth incubated for 24 hrs by INT dye based assay; format: functional; details: ATCC 25923, 24 h
Bacillus cereus = assay: Antibacterial activity against Bacillus cereus ATCC 11779 assessed as reduction in bacterial growth incubated for 24 hrs by INT dye based assay; format: functional; details: ATCC 11779, 24 h
Pseudomonas aeruginosa = assay: Antibacterial activity against Pseudomonas aeruginosa ATCC 27858 assessed as reduction in bacterial growth incubated for 24 hrs by INT dye based assay; format: functional; details: ATCC 27858, 24 h
Candida tropicalis = assay: Antimicrobial activity against Candida tropicalis ATCC 750 assessed as reduction in fungal growth incubated for 48 hrs by INT dye based assay; format: functional
Escherichia coli = assay: Antibacterial activity against Escherichia coli ATCC 8739 assessed as reduction in bacterial growth incubated for 24 hrs by INT dye based assay; format: functional; details: ATCC 8739, 24 h
[2] = molecular target: Human immunodeficiency virus type 1 integrase (Human immunodeficiency virus 1, UniProt Q7ZJM1); assay: Inhibition of HIV-1 integrase assessed as inhibition of interaction of HIV-1 IN with LEDGF/p75 (unknown origin) preincubated with enzyme for 30 mins followed by further incubation with LEDGF/p75 for 1 hr by Alphascreen assay
Sequence of Human immunodeficiency virus type 1 integrase (Q7ZJM1 whole entry): as the sequence (Q7ZJM1 as listed by the source) above

[3] = tested on: Human immunodeficiency virus 1; assay: Antiviral activity against HIV-1 NL4-3 infected in human MT4 cells assessed as reduction in p24 gag protein incubated for 5 days by ELISA; format: functional, organism-based; details: Human immunodeficiency virus 1, NL4-3, MT4, 120 h
[4] = tested on: Human immunodeficiency virus 1; assay: Antiviral activity against HIV-1 NL4-3 infected in human MT4 cells assessed as reduction in p24 gag protein at 10 uM incubated for 5 days by ELISA; format: functional, organism-based
[5] = Cytotoxicity against human MT4 cells assessed as reduction in cell viability incubated for 5 days by MTS assay; format: cell-based
[6] = molecular target: Human immunodeficiency virus type 1 integrase (Human immunodeficiency virus 1) (UniProt Q7ZJM1); assay: Inhibition of HIV-1 integrase assessed as inhibition of interaction of HIV-1 IN with LEDGF/p75 (unknown origin) at 10 uM incubated for 1 hr by Alphascreen TruHits counter assay

Row | Compound | inhibition [1] | Activity (MT4) | also measured
1 | COc1cccc(-c2cncn2C2CC2)c1 | 40% | Non-Toxic | 
2 | COc1ccc(-c2cncn2Cc2ccccc2)c(OC)c1 | 17% | Non-Toxic | MIC (Staphylococcus aureus): 62.5 mg/L (≈ 212 µM); MIC (Bacillus cereus): 125 mg/L (≈ 425 µM); MIC (Pseudomonas aeruginosa): > 250 mg/L; MIC (Candida tropicalis; ATCC 750, 48 h): 250 mg/L (≈ 849 µM); MIC (Escherichia coli): > 250 mg/L
3 | COc1ccc(-c2cncn2C2CCCCC2)c(OC)c1 | 40% | Non-Toxic | MIC (Staphylococcus aureus): 62.5 mg/L (≈ 218 µM); MIC (Bacillus cereus): 250 mg/L (≈ 873 µM); MIC (Pseudomonas aeruginosa): > 250 mg/L; MIC (Candida tropicalis; ATCC 750, 48 h): 125 mg/L (≈ 436 µM); MIC (Escherichia coli): > 250 mg/L
4 | Cc1ccc(S(=O)(=O)[C@H]2N=CO[C@@H]2c2ccccc2[N+](=O)[O-])cc1 (racemic) | 38% | Non-Toxic | 
5 | Cc1ccc(S(=O)(=O)[C@H]2N=CO[C@@H]2c2ccc3c(c2)OCO3)cc1 (racemic) | 33% | Non-Toxic | 
6 | CCCCn1cncc1-c1ccc(OC)cc1OC | 26% | Non-Toxic | 
7 | CCCCn1cncc1-c1ccc(F)cc1 | 30% | Non-Toxic | 
8 | O=[N+]([O-])c1ccccc1-c1cnco1 | 30% | Non-Toxic | 
9 | CCCCn1cncc1-c1ccc2c(c1)OCCO2 | 21% | Non-Toxic | 
10 | c1cc2c(cc1-c1cncn1C1CCCCC1)OCO2 | 40% | Non-Toxic | 
11 | c1ccc(Cn2cncc2-c2ccc3c(c2)OCO3)cc1 | 43% | Non-Toxic | 
12 | COc1cccc(-c2cncn2C2CCCCC2)c1 | 55% | Non-Toxic | IC50 [2]: 21.9 µM; MIC (Staphylococcus aureus): 62.5 mg/L (≈ 244 µM); MIC (Bacillus cereus): 62.5 mg/L (≈ 244 µM); EC50 [3]: > 10 µM; MIC (Pseudomonas aeruginosa): > 250 mg/L; MIC (Candida tropicalis; ATCC 750, 48 h): 62.5 mg/L (≈ 244 µM); MIC (Escherichia coli): > 250 mg/L; Activity [4]: inactive; CC50 at 120 h [5]: 27.7 µM; inhibition [6]: Active
13 | CCCCn1cncc1-c1ccccc1Cl | 37% | Non-Toxic | 
14 | CC(C)(C)c1ccc(-c2cncn2C2CCCCC2)cc1 | 62% | Non-Toxic | IC50 [2]: 14.6 µM; MIC (Staphylococcus aureus): 62.5 mg/L (≈ 221 µM); MIC (Bacillus cereus): 15.6 mg/L (≈ 55.2 µM); EC50 [3]: > 10 µM; MIC (Pseudomonas aeruginosa): > 250 mg/L; MIC (Candida tropicalis; ATCC 750, 48 h): 31.3 mg/L (≈ 111 µM); MIC (Escherichia coli): > 250 mg/L; Activity [4]: inactive; CC50 at 120 h [5]: 21.8 µM; inhibition [6]: Active
15 | Clc1ccccc1-c1cnco1 | 33% | Non-Toxic | 
16 | Cc1ccc(S(=O)(=O)[C@H]2N=CO[C@@H]2c2ccccc2)cc1 (racemic) | 34% | Non-Toxic | 
17 | Brc1ccc(-n2cncc2-c2ccc3c(c2)OCO3)cc1 | 48% | Non-Toxic | 
18 | Fc1ccc(-c2cncn2Cc2ccccc2)cc1 | 25% | Non-Toxic | MIC (Staphylococcus aureus): 62.5 mg/L (≈ 248 µM); MIC (Bacillus cereus): 125 mg/L (≈ 495 µM); MIC (Pseudomonas aeruginosa): > 250 mg/L; MIC (Candida tropicalis; ATCC 750, 48 h): > 250 mg/L; MIC (Escherichia coli): > 250 mg/L
19 | COc1cccc(-c2cnco2)c1 | 33% | Non-Toxic | 
20 | CCCCn1cncc1-c1ccc([N+](=O)[O-])cc1 | 27% | Non-Toxic | 
21 | NYSTATIN |  |  | MIC (Candida tropicalis): 1.25 mg/L

Row | Compound | inhibition [1] | Activity (MT4) | also measured
22 | COc1ccc(-c2cncn2C2CC2)c(OC)c1 | 28% | Non-Toxic | 
23 | COc1ccc(-c2cncn2-c2ccc(Br)cc2)c(OC)c1 | 52% | Non-Toxic | IC50 [2]: 7 µM; EC50 [3]: > 10 µM; Activity [4]: inactive; CC50 at 120 h [5]: 55.5 µM; inhibition [6]: Active
24 | O=[N+]([O-])c1ccccc1-c1cncn1C1CCCCC1 |  | Non-Toxic | 
25 | CC(C)(C)c1ccc(-c2cnco2)cc1 | 35% | Non-Toxic | 
26 | CCCCn1cncc1-c1ccc(C(C)(C)C)cc1 | 56% | Non-Toxic | IC50 [2]: 22.4 µM; MIC (Staphylococcus aureus): 15.6 mg/L (≈ 60.8 µM); MIC (Bacillus cereus): 31.3 mg/L (≈ 122 µM); EC50 [3]: > 10 µM; MIC (Pseudomonas aeruginosa): 250 mg/L (≈ 975 µM); MIC (Candida tropicalis; ATCC 750, 48 h): 31.3 mg/L (≈ 122 µM); MIC (Escherichia coli): 250 mg/L (≈ 975 µM); Activity [4]: inactive; CC50 at 120 h [5]: 23.9 µM; inhibition [6]: Active
27 | COc1ccc(-c2cnco2)c(OC)c1 | 42% | Non-Toxic | 
28 | COc1cccc(-c2cncn2Cc2ccccc2)c1 | 21% | Non-Toxic | 
29 | Clc1ccccc1-c1cncn1C1CCCCC1 | 31% | Non-Toxic | 
30 | O=[N+]([O-])c1ccc(-c2cnco2)cc1 | 33% | Non-Toxic | 
31 | c1ncc(-c2ccc3c(c2)OCO3)o1 | 35% | Non-Toxic | 
32 | Fc1ccc(-c2cnco2)cc1 | 23% | Non-Toxic | 
33 | O=[N+]([O-])c1ccc(-c2cncn2C2CCCCC2)cc1 |  | Non-Toxic | 
34 | Fc1ccc(-c2cncn2C2CCCCC2)cc1 | 45% | Non-Toxic | 
35 | Fc1ccc(-c2cncn2-c2ccc(Br)cc2)cc1 | 52% | Non-Toxic | IC50 [2]: 25.1 µM; EC50 [3]: > 10 µM; Activity [4]: inactive; CC50 at 120 h [5]: 48 µM; inhibition [6]: Active
36 | c1ccc(-c2cnco2)cc1 | 31% | Non-Toxic | 
37 | Fc1ccc(-c2cncn2C2CC2)cc1 | 31% | Non-Toxic | 
38 | O=C(O)c1cn(C2CC2)c2cc(N3CCNCC3)c(F)cc2c1=O [CIPROFLOXACIN] |  |  | MIC (Staphylococcus aureus): 0.156 mg/L (≈ 0.471 µM); MIC (Bacillus cereus): 0.156 mg/L (≈ 0.471 µM); MIC (Pseudomonas aeruginosa): 0.313 mg/L (≈ 0.945 µM); MIC (Escherichia coli): 0.313 mg/L (≈ 0.945 µM)
39 | CCCCn1cncc1-c1ccccc1[N+](=O)[O-] | 30% | Non-Toxic | 
40 | CCCCn1cncc1-c1cccc(OC)c1 | 51% | Non-Toxic | IC50 [2]: 30.5 µM; MIC (Staphylococcus aureus): > 250 mg/L; MIC (Bacillus cereus): 62.5 mg/L (≈ 271 µM); EC50 [3]: > 10 µM; MIC (Pseudomonas aeruginosa): > 250 mg/L; MIC (Candida tropicalis; ATCC 750, 48 h): 62.5 mg/L (≈ 271 µM); MIC (Escherichia coli): 125 mg/L (≈ 543 µM); Activity [4]: inactive; CC50 at 120 h [5]: 29.6 µM; inhibition [6]: Active
41 | CCCCn1cncc1-c1ccc2c(c1)OCO2 | 35% | Non-Toxic | MIC (Bacillus cereus): 31.3 mg/L (≈ 128 µM); MIC (Pseudomonas aeruginosa): > 250 mg/L; MIC (Escherichia coli): > 250 mg/L
